Laboratory results published in patent US6077680A (The University of Florida, dated 2000).

Test system: rat brain membrane K channels (primarily Kv1.2)
Format: binding

SMILES | Equipotent Molar Ratio (Analog IC50 /ShK IC50) | Free Energy Differ. of Binding ΔF | IC50 Ratio | binding affinity for rat brain K channels relative to wild-type ShK toxin, in words | ΔF | Difference of Free Energy of Binding | increase in relative free energy of binding
CC[C@H](C)[C@@H]1NC(=O)[C@@H](NC(=O)[C@H](CO)NC(=O)[C@@H](N)CCCNC(=N)N)CSSC[C@@H](C(=O)O)NC(=O)[C@H]([C@@H](C)O)NC(=O)CNC(=O)[C@@H]2CSSC[C@@H]3NC(=O)[C@H](CCC(N)=O)NC(=O)[C@H](Cc4ccccc4)NC(=O)[C@H](C)NC(=O)[C@H]([C@@H](C)O)NC(=O)[C@H](CSSC[C@H](NC(=O)[C@H](Cc4ccccc4)NC(=O)[C@H](CO)NC(=O)[C@H](CC(C)C)NC(=O)[C@H](CCCNC(=N)N)NC(=O)[C@H](Cc4ccc(O)cc4)NC(=O)[C@H](CCCCN)NC(=O)[C@H](CCSC)NC(=O)[C@H](CO)NC(=O)[C@H](CCCCN)NC(=O)[C@H](CCCCN)NC3=O)C(=O)N[C@@H](CCCNC(=N)N)C(=O)N[C@@H](CCCCN)C(=O)N[C@@H]([C@@H](C)O)C(=O)N2)NC(=O)[C@H](CCCNC(=N)N)NC(=O)[C@H](CO)NC(=O)[C@H](CCCCN)NC(=O)[C@@H]2CCCN2C(=O)[C@H]([C@@H](C)CC)NC(=O)[C@H]([C@@H](C)O)NC(=O)[C@H](CC(=O)O)NC1=O [H19K] | 2.6 | 0.56 | 2.6 | slightly reduced IC50 ratio | 0.56 |  | 
CC[C@H](C)[C@@H]1NC(=O)[C@@H](NC(=O)[C@H](CO)NC(=O)[C@@H](N)CCCNC(=N)N)CSSC[C@@H](C(=O)O)NC(=O)[C@H]([C@@H](C)O)NC(=O)CNC(=O)[C@@H]2CSSC[C@@H]3NC(=O)[C@H](CCC(N)=O)NC(=O)[C@H](Cc4ccccc4)NC(=O)[C@H](C)NC(=O)[C@H]([C@@H](C)O)NC(=O)[C@H](CSSC[C@H](NC(=O)[C@H](Cc4ccccc4)NC(=O)[C@H](CO)NC(=O)[C@H](CC(C)C)NC(=O)[C@H](CCCNC(=N)N)NC(=O)[C@H](Cc4ccc(O)cc4)NC(=O)[C@H](CCCCN)NC(=O)[C@H](CCSC)NC(=O)[C@H](CO)NC(=O)[C@H](Cc4c[nH]cn4)NC(=O)[C@H](CCCCN)NC3=O)C(=O)N[C@@H](CCCNC(=N)N)C(=O)N[C@@H](CCCCN)C(=O)N[C@@H]([C@@H](C)O)C(=O)N2)NC(=O)[C@H](CCCNC(=N)N)NC(=O)[C@H](CO)NC(=O)[C@H](CCCCN)NC(=O)[C@@H]2CCCN2C(=O)[C@H](C)NC(=O)[C@H]([C@@H](C)O)NC(=O)[C@H](CC(=O)O)NC1=O [I7A] |  |  | 5.2 |  |  | 0.96 | approximately 1 kcal/mol
CC[C@H](C)[C@@H]1NC(=O)[C@@H](NC(=O)[C@H](CO)NC(=O)[C@@H](N)CCCNC(=N)N)CSSC[C@@H](C(=O)O)NC(=O)[C@H]([C@@H](C)O)NC(=O)CNC(=O)[C@@H]2CSSC[C@@H]3NC(=O)[C@H](CCC(N)=O)NC(=O)[C@H](Cc4ccccc4)NC(=O)[C@H](C)NC(=O)[C@H]([C@@H](C)O)NC(=O)[C@H](CSSC[C@H](NC(=O)[C@H](Cc4ccccc4)NC(=O)[C@H](CO)NC(=O)[C@H](CC(C)C)NC(=O)[C@H](CCCNC(=N)N)NC(=O)[C@H](Cc4ccc(O)cc4)NC(=O)[C@H](CCCCN)NC(=O)[C@H](CCSC)NC(=O)[C@H](CO)NC(=O)[C@H](Cc4c[nH]cn4)NC(=O)[C@H](CCCCN)NC3=O)C(=O)N[C@@H](CCCNC(=N)N)C(=O)N[C@@H](CCCCN)C(=O)N[C@@H]([C@@H](C)O)C(=O)N2)NC(=O)[C@H](CCCNC(=N)N)NC(=O)[C@H](CO)NC(=O)[C@H](C)NC(=O)[C@@H]2CCCN2C(=O)[C@H]([C@@H](C)CC)NC(=O)[C@H]([C@@H](C)O)NC(=O)[C@H](CC(=O)O)NC1=O [K9A] |  |  | 1.3 |  |  | 0.15 | 
